Results published in the NIST ThermoML archive (doi:10.1016/j.jct.2015.12.017).

What was measured:
[1] = for molar entropy: 101.33 kPa
[2] = Molar enthalpy of transition or fusion

O=P([O-])([O-])[O-].[Co+2].[Cs+] [cesium cobalt(II) phosphate]
[1]
Conditions | molar entropy [J/K/mol]
5 K, Crystal 4, Vacuum adiabatic calorimetry | 0.4864
6 K, Crystal 4, Vacuum adiabatic calorimetry | 0.7965
7 K, Crystal 4, Vacuum adiabatic calorimetry | 1.172
8 K, Crystal 4, Vacuum adiabatic calorimetry | 1.621
9 K, Crystal 4, Vacuum adiabatic calorimetry | 2.062
10 K, Crystal 4, Vacuum adiabatic calorimetry | 2.528
15 K, Crystal 4, Vacuum adiabatic calorimetry | 5.047
20 K, Crystal 4, Vacuum adiabatic calorimetry | 8.117
25 K, Crystal 4, Vacuum adiabatic calorimetry | 11.62
30 K, Crystal 4, Vacuum adiabatic calorimetry | 15.46
35 K, Crystal 4, Vacuum adiabatic calorimetry | 19.44
40 K, Crystal 4, Vacuum adiabatic calorimetry | 23.53
45 K, Crystal 4, Vacuum adiabatic calorimetry | 27.67
50 K, Crystal 4, Vacuum adiabatic calorimetry | 31.83
60 K, Crystal 4, Vacuum adiabatic calorimetry | 40.01
70 K, Crystal 4, Vacuum adiabatic calorimetry | 47.95
80 K, Crystal 4, Vacuum adiabatic calorimetry | 55.65
90 K, Crystal 4, Vacuum adiabatic calorimetry | 63.08
100 K, Crystal 4, Vacuum adiabatic calorimetry | 70.28
110 K, Crystal 4, Vacuum adiabatic calorimetry | 77.27
120 K, Crystal 4, Vacuum adiabatic calorimetry | 84.06
130 K, Crystal 4, Vacuum adiabatic calorimetry | 90.54
140 K, Crystal 4, Vacuum adiabatic calorimetry | 96.95
150 K, Crystal 4, Vacuum adiabatic calorimetry | 103.18
160 K, Crystal 4, Vacuum adiabatic calorimetry | 109.17
170 K, Crystal 4, Vacuum adiabatic calorimetry | 115.16
180 K, Crystal 4, Vacuum adiabatic calorimetry | 120.89
190 K, Crystal 4, Vacuum adiabatic calorimetry | 126.55
200 K, Crystal 4, Vacuum adiabatic calorimetry | 132.03
210 K, Crystal 4, Vacuum adiabatic calorimetry | 137.36
220 K, Crystal 4, Vacuum adiabatic calorimetry | 142.59
230 K, Crystal 4, Vacuum adiabatic calorimetry | 147.75
240 K, Crystal 4, Vacuum adiabatic calorimetry | 152.74
250 K, Crystal 4, Vacuum adiabatic calorimetry | 157.64
260 K, Crystal 4, Vacuum adiabatic calorimetry | 162.55
270 K, Crystal 4, Vacuum adiabatic calorimetry | 167.29
273.15 K, Crystal 4, Vacuum adiabatic calorimetry | 168.78
280 K, Crystal 4, Vacuum adiabatic calorimetry | 171.94
290 K, Crystal 4, Vacuum adiabatic calorimetry | 176.52
298.15 K, Crystal 4, Vacuum adiabatic calorimetry | 180.17
300 K, Crystal 4, Vacuum adiabatic calorimetry | 181.01
310 K, Crystal 4, Vacuum adiabatic calorimetry | 185.5
313.4 K, Crystal 3, Vacuum adiabatic calorimetry | 186.91
313.4 K, Crystal 4, Vacuum adiabatic calorimetry | 186.83
320 K, Crystal 3, Vacuum adiabatic calorimetry | 190.07
330 K, Crystal 3, Vacuum adiabatic calorimetry | 194.48
340 K, Crystal 3, Vacuum adiabatic calorimetry | 198.8
350 K, Crystal 3, Small sample (50 mg) DSC | 203.12
360 K, Crystal 3, Small sample (50 mg) DSC | 207.45
370 K, Crystal 3, Small sample (50 mg) DSC | 211.69
380 K, Crystal 3, Small sample (50 mg) DSC | 215.76
390 K, Crystal 3, Small sample (50 mg) DSC | 219.92
400 K, Crystal 3, Small sample (50 mg) DSC | 223.91
410 K, Crystal 3, Small sample (50 mg) DSC | 227.9
420 K, Crystal 3, Small sample (50 mg) DSC | 231.81
430 K, Crystal 3, Small sample (50 mg) DSC | 235.63
440 K, Crystal 3, Small sample (50 mg) DSC | 239.46
450 K, Crystal 3, Small sample (50 mg) DSC | 243.2
460 K, Crystal 3, Small sample (50 mg) DSC | 246.94
470 K, Crystal 3, Small sample (50 mg) DSC | 250.6
480 K, Crystal 3, Small sample (50 mg) DSC | 254.26
486.9 K, Crystal 2, Small sample (50 mg) DSC | 257.5
486.9 K, Crystal 3, Small sample (50 mg) DSC | 256.83
490 K, Crystal 2, Small sample (50 mg) DSC | 258.58
500 K, Crystal 2, Small sample (50 mg) DSC | 262.16
510 K, Crystal 2, Small sample (50 mg) DSC | 265.65
514.4 K, Crystal 1, Small sample (50 mg) DSC | 267.98
514.4 K, Crystal 2, Small sample (50 mg) DSC | 267.06
520 K, Crystal 1, Small sample (50 mg) DSC | 270.05
530 K, Crystal 1, Small sample (50 mg) DSC | 273.38
540 K, Crystal 1, Small sample (50 mg) DSC | 276.71
550 K, Crystal 1, Small sample (50 mg) DSC | 279.95
560 K, Crystal 1, Small sample (50 mg) DSC | 283.19
570 K, Crystal 1, Small sample (50 mg) DSC | 286.27
580 K, Crystal 1, Small sample (50 mg) DSC | 289.34
590 K, Crystal 1, Small sample (50 mg) DSC | 292.42
600 K, Crystal 1, Small sample (50 mg) DSC | 295.41
610 K, Crystal 1, Small sample (50 mg) DSC | 298.32
620 K, Crystal 1, Small sample (50 mg) DSC | 301.15
630 K, Crystal 1, Small sample (50 mg) DSC | 303.98
640 K, Crystal 1, Small sample (50 mg) DSC | 306.8
650 K, Crystal 1, Small sample (50 mg) DSC | 309.55

Conditions | Molar enthalpy of transition or fusion, Crystal 2, DSC [kcal/mol] | Molar enthalpy of transition or fusion, Crystal 3, DSC [kcal/mol] | Molar enthalpy of transition or fusion, Crystal 4, Adiabatic calorimetry [kcal/mol] | Triple point temperature, Crystal 2, DSC [K] | Triple point temperature, Crystal 3, DSC [K] | Triple point temperature, Crystal 4, Adiabatic calorimetry [K]
[1] | – | – | – | 514.4 | 486.9 | 313.4
[2] | 0.113 | 0.0824 | 0.00728 | – | – | –
